Patent publication US11180474B2 (BRISTOL-MYERS SQUIBB COMPANY, priority 2016, dated 2021)
Where a name gives a salt, the structure may show the parent alone.

Molecular target: T1, human TLR9 (Homo sapiens, UniProt Q9NR96)
T1 construct: host or cells: HEK-Blue cells
T1 sequence (Q9NR96 26-1032): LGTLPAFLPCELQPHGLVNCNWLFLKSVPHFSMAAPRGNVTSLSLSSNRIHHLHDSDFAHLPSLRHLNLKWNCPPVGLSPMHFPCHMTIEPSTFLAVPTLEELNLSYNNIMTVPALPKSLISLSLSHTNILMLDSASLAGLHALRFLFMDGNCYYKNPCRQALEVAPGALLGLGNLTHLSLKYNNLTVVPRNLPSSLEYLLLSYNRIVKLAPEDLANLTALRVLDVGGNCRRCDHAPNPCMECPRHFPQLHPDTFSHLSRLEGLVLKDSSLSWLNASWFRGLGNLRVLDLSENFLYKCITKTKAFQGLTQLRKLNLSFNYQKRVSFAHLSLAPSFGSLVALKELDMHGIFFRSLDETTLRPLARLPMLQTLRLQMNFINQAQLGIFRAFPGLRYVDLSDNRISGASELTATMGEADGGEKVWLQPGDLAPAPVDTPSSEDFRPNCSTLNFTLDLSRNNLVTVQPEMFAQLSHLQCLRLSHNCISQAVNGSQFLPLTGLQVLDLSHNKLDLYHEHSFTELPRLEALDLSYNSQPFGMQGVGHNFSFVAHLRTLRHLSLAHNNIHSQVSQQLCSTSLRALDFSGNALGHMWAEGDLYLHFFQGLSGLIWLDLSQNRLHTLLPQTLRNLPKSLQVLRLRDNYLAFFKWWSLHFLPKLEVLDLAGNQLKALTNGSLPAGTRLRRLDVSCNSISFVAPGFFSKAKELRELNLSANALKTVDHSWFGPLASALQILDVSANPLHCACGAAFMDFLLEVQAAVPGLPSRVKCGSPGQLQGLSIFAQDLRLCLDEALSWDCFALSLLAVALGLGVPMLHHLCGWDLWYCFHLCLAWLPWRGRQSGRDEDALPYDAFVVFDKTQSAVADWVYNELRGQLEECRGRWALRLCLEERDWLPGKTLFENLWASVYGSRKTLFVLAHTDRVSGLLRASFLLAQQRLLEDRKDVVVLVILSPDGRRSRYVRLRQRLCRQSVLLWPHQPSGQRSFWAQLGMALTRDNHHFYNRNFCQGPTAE
Experiment: TLR9 inhibition reporter assay (HEK-Blue cells, SEAP reporter, ODN2006 stimulation)
Format: cell-based
Conditions: HEK-Blue cells overexpressing human TLR9, ODN2006 5 nM
In short: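 Compound treatment: 30 min, RT, 0.05 nM–50 μM final. Agonist: TLR7 gardiquimod 7.5 μM; TLR8 R848 15.9 μM; TLR9 ODN2006 5 nM. Incubation 22 h, 37 °C, 5% CO2. Readout SEAP, HEK-Blue Detection.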

SMILES	IC50 [nM]
CCc1c(-c2ccc(OC)c(OC)c2)[nH]c2ccc(C3CCN(C4CCN(CC(C)C)CC4)CC3)cc12 [Example 123, 2-(3,4-dimethoxyphenyl)-3-ethyl-5-(1′-isobutyl-[1,4′-bipiperidin]-4-yl)-1H-indole-di-trifluoroacetic acid]	170
CNCCN1CCC(c2cc3c(C(C)C)c(-c4ccc(OC)c(OC)c4)[nH]c3cc2F)CC1 [Example 208, 2-(4-(2-(3,4-dimethoxyphenyl)-6-fluoro-3-isopropyl-1H-indol-5-yl)piperidin-1-yl)-N-methylethan-1-amine]	374
COc1ccc(-c2[nH]c3ccc(C4CCN(C(=O)CNCCO)CC4)cc3c2C(C)C)cc1OC [Example 212, 1-(4-(2-(3,4-dimethoxyphenyl)-3-isopropyl-1H-indol-5-yl)piperidin-1-yl)-2-((2-hydroxyethyl)amino)ethan-1-one]	1190
CCc1c(-c2ccc(OC)c(OC)c2)[nH]c2ccc(C3CCN(C(=O)C4CCCNC4)CC3)cc12 (stereo not shown) [Example 184, (4-(2-(3,4-dimethoxyphenyl)-3-ethyl-1H-indol-5-yl)piperidin-1-yl)(piperidin-3-yl)methanone]	2070
COc1ccc(-c2[nH]c3ccc(C4CCN(C5CCN(CC6CC6)CC5)CC4)cc3c2C(C)C)cc1OC [Example 198, 5-(1′-(cyclopropylmethyl)-[1,4′-bipiperidin]-4-yl)-2-(3,4-dimethoxyphenyl)-3-isopropyl-1H-indole di trifluoroacetic acid]	490
CCc1c(-c2ccc(OC)c(OC)c2)[nH]c2ccc(C3CCN(C4CCN(C)CC4)CC3)cc12 [Example 150, 2-(3,4-dimethoxyphenyl)-3-ethyl-5-(1′-methyl-[1,4′-bipiperidin]-4-yl)-1H-indole]	2340
CCc1c(-c2ccc(OC)c(OC)c2)[nH]c2ccc(C3CCN(C(C)=O)CC3)cc12 [Example 185, 1-(4-(2-(3,4-dimethoxyphenyl)-3-ethyl-1H-indol-5-yl)piperidin-1-yl)ethan-1-one]	32400
CCc1c(-c2ccc(OC)c(OC)c2)[nH]c2c(F)cc(C3CCN(C4CCN(CC(C)C)CC4)CC3)cc12 [Example 190, 2-(3,4-dimethoxyphenyl)-3-ethyl-7-fluoro-5-(1′-isobutyl-[1,4′-bipiperidin]-4-yl)-1H-indole]	280
CCc1c(-c2ccc(OC)c(OC)c2)[nH]c2ccc(C3CCN(C4CCN(Cc5cnc(C)[nH]5)CC4)CC3)cc12 [Example 153, 2-(3,4-dimethoxyphenyl)-3-ethyl-5-(1′-((2-methyl-1H-imidazol-5-yl)methyl)-[1,4′-bipiperidin]-4-yl)-1H-indole]	547
CCc1c(-c2ccc(OC)c(OC)c2)[nH]c2ccc(C3CCN(C4CCN(CC)CC4)CC3)cc12 [Example 149, 2-(3,4-dimethoxyphenyl)-3-ethyl-5-(1′-ethyl-[1,4′-bipiperidin]-4-yl)-1H-indole]	152
CCc1c(-c2ccc(OC)c(OC)c2)[nH]c2ccc(C3CCN(CCNC)CC3)cc12 [Example 155, 2-(4-(2-(3,4-dimethoxyphenyl)-3-ethyl-1H-indol-5-yl)piperidin-1-yl)-N-methylethanamine di-trifluoroacetic acid]	492
CCc1c(-c2ccc(OC)c(OC)c2)[nH]c2ccc(C3CCN(C(=O)CN4CC[C@@H](O)C4)CC3)cc12 [Example 173, (R)-1-(4-(2-(3,4-dimethoxyphenyl)-3-ethyl-1H-indol-5-yl)piperidin-1-yl)-2-(3-hydroxypyrrolidin-1-yl)ethan-1-one]	2240
CCc1c(-c2ccc(OC)c(OC)c2)[nH]c2ccc(C3CCN(C(=O)C4CCNCC4)CC3)cc12 [Example 186, (4-(2-(3,4-dimethoxyphenyl)-3-ethyl-1H-indol-5-yl)piperidin-1-yl)(piperidin-4-yl) methanone]	991
COc1ccc(-c2[nH]c3cc(C)c(C4CCN(C5CCN(C(C)C)CC5)CC4)cc3c2C(C)C)cc1OC [Example 206, 2-(3,4-dimethoxyphenyl)-3-isopropyl-5-(1′-isopropyl-[1,4′-bipiperidin]-4-yl)-6-methyl-1H-indole di trifluoroacetic acid]	1000
COc1ccc(-c2[nH]c3ccc(C4CCN(C5CCN(Cc6ccccc6)CC5)CC4)cc3c2C)cc1OC [Example 9, 5-(1′-benzyl-[1,4′-bipiperidin]-4-yl)-2-(3,4-dimethoxyphenyl)-3-methyl-1H-indole]	360
COc1ccc(-c2[nH]c3ccc(C4CCN(C5CCN(C(C)C)CC5)CC4)cc3c2C(C)C)cc1OC [Example 201, 2-(3,4-dimethoxyphenyl)-3-isopropyl-5-(1′-isopropyl-[1,4′-bipiperidin]-4-yl)-1H-indole]	650
CCN(CC)C(=O)CN(C)CC(=O)N1CCC(c2ccc3[nH]c(-c4ccc(OC)c(OC)c4)c(C(C)C)c3c2)CC1 [Example 203, 2-((2-(4-(2-(3,4-dimethoxyphenyl)-3-isopropyl-1H-indol-5-yl)piperidin-1-yl)-2-oxoethyl)(methyl)amino)-N,N-diethylacetamide, TFA]	6660
CNCCN1CCC(c2ccc3c(c2)c(C)c(-c2ccc(OC)c(OC)c2)n3C)CC1 [Example 114, 2-(4-(2-(3,4-dimethoxyphenyl)-1,3-dimethyl-1H-indol-5-yl)piperidin-1-yl)-N-methylethan-1-amine]	737
CCc1c(-c2ccc(OC)c(OC)c2)[nH]c2ccc(C3CCN(C4CCN(Cc5ccc(-c6ccccc6)o5)CC4)CC3)cc12 [Example 143, 2-(3,4-dimethoxyphenyl)-3-ethyl-5-(1′-((5-phenylfuran-2-yl)methyl)-[1,4′-bipiperidin]-4-yl)-1H-indole]	730
COc1ccc(-c2[nH]c3ccc(C4CCN(C5CCN(CC(C)C)CC5)CC4)cc3c2C)cc1OC [Example 6, 2-(3,4-dimethoxyphenyl)-5-(1′-isobutyl-[1,4′-bipiperidin]-4-yl)-3-methyl-1H-indole]	221
COc1ccc(-c2[nH]c3ccc(C4CCN(C5CCN(CC(C)C)CC5)CC4)cc3c2C(C)C)cc1OC [Example 199, 2-(3,4-dimethoxyphenyl)-5-(1′-isobutyl-[1,4′-bipiperidin]-4-yl)-3-isopropyl-1H-indole]	257
CCc1c(-c2ccc(OC)c(OC)c2)[nH]c2ccc(C3CCN(C4CCN(Cc5cnc(C)o5)CC4)CC3)cc12 [Example 124, 5-((4-(2-(3,4-dimethoxyphenyl)-3-ethyl-1H-indol-5-yl)-[1,4′-bipiperidin]-1′-yl)methyl)-2-methyloxazole]	1280
CCc1c(-c2ccc(OC)c(OC)c2)[nH]c2ccc(C3CCN(C4CCN(Cc5ccsc5)CC4)CC3)cc12 [Example 142, 2-(3,4-dimethoxyphenyl)-3-ethyl-5-(1′-(thiophen-3-ylmethyl)-[1,4′-bipiperidin]-4-yl)-1H-indole]	133
CNCCN1CCC(c2cc3c(C(C)C)c(-c4ccc(OC)c(OC)c4)[nH]c3cc2C)CC1 [Example 207, 2-(4-(2-(3,4-dimethoxyphenyl)-3-isopropyl-6-methyl-1H-indol-5-yl)piperidin-1-yl)-N-methylethan-1-amine]	2290
CCc1c(-c2ccc(OC)c(OC)c2)[nH]c2ccc(C3CCN(C4CCN(Cc5c(C)noc5C)CC4)CC3)cc12 [Example 138, 4-((4-(2-(3,4-dimethoxyphenyl)-3-ethyl-1H-indol-5-yl)-[1,4′-bipiperidin]-1′-yl)methyl)-3,5-dimethylisoxazole]	1400
CCc1c(-c2ccc(OC)c(OC)c2)[nH]c2ccc(C3CCN(C4CCN(Cc5csnn5)CC4)CC3)cc12 [Example 130, 4-((4-(2-(3,4-dimethoxyphenyl)-3-ethyl-1H-indol-5-yl)-[1,4′-bipiperidin]-1′-yl)methyl)-1,2,3-thiadiazole]	6230
COc1ccc(-c2[nH]c3ccc(C4CCN(C(=O)CNC(CO)CO)CC4)cc3c2C(C)C)cc1OC [Example 220, 2-((1,3-dihydroxypropan-2-yl)amino)-1-(4-(2-(3,4-dimethoxyphenyl)-3-isopropyl-1H-indol-5-yl)piperidin-1-yl)ethan-1-one]	5580
COc1ccc(-c2[nH]c3ccc(C4CCN(C(=O)CNC56CC7CC(CC(O)(C7)C5)C6)CC4)cc3c2C(C)C)cc1OC [Example 218, 1-(4-(2-(3,4-dimethoxyphenyl)-3-isopropyl-1H-indol-5-yl)piperidin-1-yl)-2-(((1r,3s,5R,7S)-3-hydroxyadamantan-1-yl)amino)ethan-1-one]	1280
